Experiments:
Assay type in all cases: in vitro ADME
[1] = Caco-2 permeability / efflux; conditions: human, Caco-2, pH 7.4; for efflux ratio at 120 min, 5 µM: Papp (B-to-A) / Papp (A-to-B)
Procedure: P-gp Substrate Assessment using Caco-2 Monolayers
Caco-2 cells (clone C2BBe1) were obtained from American Type Culture Collection (Manassas, VA). Hanks’ balanced salt solution, valspodar and lucifer yellow were obtained from Sigma-Aldrich (St. Louis, MO). All solvents were obtained from commercial sources and used without further purification. Cell monolayers were grown to confluence on collagen-coated, microporous membranes in 12-well assay plates. Details of the plates and their certification are shown below. The permeability assay buffer was Hanks’ balanced salt solution (HBSS) containing 10 mM HEPES and 15 mM glucose at a pH of 7.4. The buffer in the receiver chamber also contained 1% bovine serum albumin. The dosing solution concentration was 5 μM of test article in the assay buffer +/- 1 μM valspodar. Cells were first pre-incubated for 30 minutes with HBSS containing +/- 1 μM valspodar. Cell monolayers were dosed on the apical side (A-to-B) or basolateral side (B-to-A) and incubated at 37°C with 5% CO2 in a humidified incubator. Samples were taken from the donor and receiver chambers at 120 minutes. Each determination was performed in duplicate. The flux of lucifer yellow was also measured post-experimentally for each monolayer to ensure no damage was inflicted to the cell monolayers during the flux period. All samples were assayed by LC-MS/MS using electrospray ionization.
LC-MS/MS Analysis using the PE Sciex API 4000 mass spectrometer […]
Column: Waters ACQUITY UPLC BEH Phenyl 30 × 2.1 mm, 1.7 µm
Mobile Phase Buffer: 25 mM ammonium formate buffer, pH 3.5
Aqueous Reservoir (A): 90% water, 10% buffer
Organic Reservoir (B): 90% acetonitrile, 10% buffer
Total Run Time: 1.00 minute
Autosampler: 10 µL injection volume
Wash1: water/methanol/2-propanol:1/1/1; with 0.2% formic acid
Wash2: 0.1% formic acid in water
Instrument: PE SCIEX API 4000
Interface: Turbo Ionspray
Mode: Multiple Reaction Monitoring (Negative ion mode)
Method: 1.0 minute duration
Mass Spectrometer Settings
Data Analysis and Calculations
The apparent permeability (Papp) and percent recovery were calculated as follows:
Papp = (dCr/dt) × Vr/(A × CA)
Percent recovery = 100 × ((V × Cfinal) + (V × Cfinal)) / (V × C ) […]
dCr/dt is the slope of the cumulative receiver concentration versus time in µM s-1;
Vr is the volume of the receiver compartment in cm3;
Vd is the volume of the donor compartment in cm3;
A is the area of the insert (1.13 cm2 for 12-well);
CA is the average of the nominal dosing concentration and the measured 120 minute donor concentration in μM;
CN is the nominal concentration of the dosing solution in μM;
Cfinal is the cumulative receiver concentration in μM at the end of the incubation period; […]
Cd is the concentration of the donor in μM at the end of the incubation period.
Efflux ratio (ER) is defined as Papp (B-to-A) / Papp (A-to-B). […]

[2] = Plasma protein binding (RED dialysis), rat; conditions: male, Sprague Dawley, pH 7.4
Excerpt: Verapamil hydrochloride and tamoxifen were obtained from Sigma-Aldrich. […]
Pooled mixed gender human donor plasma, Sprague Dawley male rat plasma, CD-1 (ICR) male mouse plasma and male beagle dog plasma were obtained from Bioreclamation Inc. (Westbury, NY). Reusable Teflon base plate, RED Device inserts, and BupH Phosphate Buffered Saline packs (0.1 M sodium phosphate and 0.15 M sodium chloride when dissolved in 0.5 L water) were obtained from Thermo Scientific (Waltham, MA). Propranolol was obtained from Sigma-Aldrich (St. Louis, MO). All solvents were obtained from commercial sources and used without further purification.
Frozen plasma was thawed and the pH of plasma and BupH phosphate buffered saline was adjusted to 7.4 prior to dialysis. Into each well of a reusable Teflon 48-well base plate a RED insert was placed open end up. Ten microliters (10 µL) of the test compound (0.1 mM in acetonitrile/water, 1:1 v/v) was added to 990 µL of plasma to achieve 1 µM final concentration. The spiked plasma (200 µL) was added to the sample chamber, which is indicated by the red retainer ring (donor side). To the other side (receiver side), 350 µL of BupH phosphate buffered saline (pH 7.4) was added. A buffer-to-buffer assay was also performed to measure equilibrium across the membrane in the absence of plasma protein.
Propranolol was used as a positive control. All samples were prepared in triplicate. The RED device base plate was then sealed and placed in a shaking incubator set to maintain 37°C and 200 rpm for four hours.
After incubation, 100 µL of each sample was combined with an equal volume of either plasma or buffer, to create a similar matrix for all samples. Blank buffer was added to plasma samples, and vice versa. Samples from the incubation, along with the original compound-spiked plasma samples, were prepared for analysis in the same manner. Protein precipitation by addition of two parts of ice-cold acetonitrile to one part of reaction volume was carried out. To ensure complete protein precipitation samples were sealed and placed overnight at 4°C. The next morning samples were centrifuged at 3,600 rpm for 15 minutes. The supernatants (70 µL) were supplemented with an equal volume of internal standard solution (0.15 µM verapamil in water) and subjected to LC-MS/MS analysis.

[3] = Metabolic clearance in hepatocytes, dog; conditions: male, beagle, cryopreserved dog hepatocytes, read-out: Hepatocyte Clearance (t1/2 min) Dog
Procedure: Metabolic Clearance in Hepatocytes
Testosterone was obtained from Cerilliant (Round Rock, TX). 7-Hydroxycoumarin was obtained from Sigma-Aldrich (St.
Louis, MO). Ten-donor male pooled cryopreserved human hepatocytes, cryopreserved male Sprague Dawley rat hepatocytes, cryopreserved male ICR/CD-1 mouse hepatocytes, cryopreserved male beagle dog hepatocytes, In VitroGro HI Medium (Incubation), and InVitroGro HT Medium (Thawing) were obtained from Bioreclamation IVT (Baltimore, MD). All solvents were obtained from commercial sources and used without further purification.Test compound was prepared as a 1 mM stock solution in DMSO. A 2 µM solution of test compound and testosterone was prepared (7 - hydroxycoumarin was prepared at 20 µM) in In VitroGro HI Medium (Incubation). These solutions were placed in a sterile incubator set to maintain 37°C, 5% CO2, and 98% humidity to pre-warm. Cryopreserved hepatocytes were prepared at a concentration of 2 x 10^6 living cells/mL in incubation media and placed in the incubator to pre-warn. The compound solutions and hepatocyte mixtures were then combined at a ratio of 1:1 (v:v). The final volume of the reaction mixture was 750 µL, containing 1 µM test compound and 1 x 10^6 cells/mL. The reaction mixture was placed in the incubator on a plate shaker. After 0, 15, 30, 60, 90, and 120 minutes of incubation, 100 µL of reaction mixtures were removed from the incubation plate and mixed with 150 µL of ice-cold acetonitrile in a designated well of a 96-well crash plate. The 96-well crash plate was placed on ice for 15 min, and samples were centrifuged (3,600 rpm, 10 min, 4 °C) to precipitate protein.
The supernatants were diluted 1:1 (v/v) with water containing tolbutamide, (internal standard for positive and negative modes, respectively) in a 96-well shallow injection plate. This plate was sealed for LC-MS analysis. All measurements

Row | Papp A→B at 120 min, 5 µM [1] [×10⁻⁶ cm/s] | efflux ratio at 120 min, 5 µM [1] | fraction unbound at 4 h, 1 µM [2] | half-life at 1 µM [3] [h] | Compound
1 | 23 | 1.9 | 0.003 | 5.92 | Cc1nc(N)c2c(-c3ccc(NC(=O)[C@H](O)c4cccc(Cl)c4)cc3C)cn(C)c2n1 [Compound 28]
2 | 19 | 1.9 | 0.009 | 7.67 | Cc1nc(N)c2c(-c3ccc(NC(=O)[C@H](O)c4cc(F)cc(F)c4)cc3C)cn(C)c2n1 [Compound 38]
3 | 16 | 2 | 0.001 | 3.72 | Cc1nc(N)c2c(-c3ccc(NC(=O)[C@H](O)c4cc(F)cc(C(F)(F)F)c4)cc3C)cn(C)c2n1 [Compound 39]
4 | 20 | 2.5 | 0.005 | 3.87 | Cc1cc(F)cc([C@@H](O)C(=O)Nc2ccc(-c3cn(C)c4nc(C)nc(N)c34)c(C)c2)c1 [Compound 41]
5 | 24 | 1.6 | 0.004 | 3.58 | Cc1nc(N)c2c(-c3ccc(NC(=O)[C@H](O)c4cccc(Cl)c4)cc3F)cn(C)c2n1 [Compound 48]
6 | 26 | 1.6 | 0.011 | 9.45 | Cc1nc(N)c2c(-c3ccc(NC(=O)[C@H](O)c4cccc(F)c4)c(F)c3C)cn(C)c2n1 [Compound 65]
7 | 24 | 1.5 | 0.014 | 0.65 | Cc1nc(N)c2c(-c3cc(F)c(NC(=O)[C@H](O)c4cccc(F)c4)cc3C)cn(C)c2n1 [Compound 66]

Row | Compound | Papp A→B at 120 min, 5 µM [1] [×10⁻⁶ cm/s] | efflux ratio at 120 min, 5 µM [1] | fraction unbound at 4 h, 1 µM [2] | half-life at 1 µM [3] [h]
8 | Cc1nc(N)c2c(-c3ccc(NC(=O)[C@H](O)c4cccc(F)c4)cc3C)cn(C)c2n1 [Compound 24] | 9 | 5.2 | 0.009 | > 16.7
9 | Cc1nc(N)c2c(-c3ccc(NC(=O)[C@H](O)c4cccc(C(F)(F)F)c4)cc3C)cn(C)c2n1 [Compound 26] | 21 | 2.2 | 0.002 | 2.17
10 | Cc1nc(N)c2c(-c3ccc(NC(=O)[C@H](O)c4cccc(F)c4)c(F)c3F)cn(C)c2n1 [Compound 70, (R)-N-(4-(4-amino-2,7-dimethyl-7H-pyrrolo[2,3-d]pyrimidin-5-yl)-2,3-difluorophenyl)-2-(3-fluorophenyl)-2-hydroxyacetamide] | 29 | 1.7 | 0.007 | 4.47

— article PMC9611727, “Optimization of a Novel Mandelamide-Derived Pyrrolopyrimidine Series of PERK Inhibitors” (Pharmaceutics, 2022)
